Assay results as given in US20080051438A1, “Preventive/Therapeutic Compositions Useful for Treating Cardiovascular Diseases” (priority 2006, published 2008).

Columns and labels:
Type in all cases: in vivo, human
hypertensive patients [1] = assay: Special investigation of combined use of cilnidipine and ARB: changes in systolic and diastolic blood pressure
Description: (§1) A special investigation was conducted in various medical centers, compiled, and analyzed to evaluate the safety and availability of the combined use of cilnidipine and at least one angiotensin II receptor blocker.
(§2) The subjects of the investigation were hypertensive patients which were adapted to cilnidipine. Combined administration of cilnidipine and ARB was started for the treatment of hypertension in these patients.
(§3) A prospective continuous investigation method was conducted. Such a method is continuously conducted with the registered cases with the combined administration of cilnidipine (Atelec®) and ARB, until the number of cases reaches the contracted cases for each center.
(§4) Regarding the administration method of cilnidipine, 5 to 10 mg of cilnidipine was orally administered after breakfast once a day. Meanwhile, the amount may increase or decrease depending on patient's age, symptoms, or the like. When the effect is insufficient, the amount can be increased to 20 mg once a day. The dosing period of cilnidipine was set to 12 weeks in principle.
(§5) The following items were tracked during the investigation: patient's background (sex), existence or nonexistence of previous therapeutic agents and the content thereof, targeted blood pressure (systolic BP/diastolic BP), the conditions of administration of cilnidipine and ARB, antihypertensives used in combination (those other than cilnidipine or ARB), clinical course (systolic BP/diastolic BP/heart rate), and occurrence of side-effects. As for the availability of the combined administration, in the 12th week after starting the combined administration, the doctor in attendance judged the degree of the blood pressure controls on a three-point scale of “well-controlled”, “nearly well-controlled” and “poorly-controlled”, referring to the changes in the systolic and diastolic BP. As for the safety and availability analysis for each patient background, Fisher's exact probability test or the X^2 test was used. As for the blood pressure and heart rate, the average value and the standard deviation were calculated for the subjects before the combined administration (within 4 weeks before starting the combined administration), and data after starting the combined administration were determined on each observation day, and analysis was conducted by using a paired t-test. The test was conducted as the two-sided test and less than 5% of the risk rate was regarded as significant. Furthermore, side-effects were compiled based on the naming of preferred terms (PT) of MedDRA/J ver 8.0.
Table 7 and FIG. 2 show the number of cases for which the blood pressure was measured, and the changes in the measured values of systolic BP, diastolic BP, and heart rate were measured at the following time points: before starting the combined administration, 4 weeks, 8 weeks, and 12 weeks after starting the combined administration, and the last measurement, […] administration, n=2919). […] Then, it continued to slowly decrease, and the a stable change was seen up to 12 weeks after the start.

hypertensive patients [2] = assay: Special investigation of combined use of cilnidipine and ARB: degree of the blood pressure controls judged by the doctor (efficacy ratio); set-up: concentration or dose not given beside the values; settings: named ARB alone, then cilnidipine additionally administered, kind of ARB unchanged; blood pressure control in the 12th week
Description: as §1, §2, §3, §4, §5
As the index of availability, in the 12th week after starting the combined administration, the doctor in attendance judged the degree of the blood pressure controls on a three-point scale of “well-controlled”, “nearly well-controlled” and “poorly-controlled”.
(1) Among the 2919 cases in the availability analysis, 42 cases in which the degree of the blood pressure controls was not described, and 168 cases which could not be judged, were excluded. In the other 2709 cases, the ratio of number of cases judged as “nearly well-controlled” or higher was calculated as the efficacy ratio. Accordingly, the efficacy ratio of the subject cases in the availability analysis was 84.8% (2298 cases/2709 cases).

hypertensive patients [3] = assay: Special investigation of combined use of cilnidipine and ARB: changes in heart rate; settings: for heart rate (beat/min.) last meas., ave.: named ARB + 10 mg cilnidipine after switch from 5 mg amlodipine, 12 weeks or later to the last measurement; for heart rate (beat/min.) last meas.: named ARB + cilnidipine 10 mg, last measurement; for heart rate (beat/min.) last meas. / heart rate (beat/min.) start. admin., ave. / heart rate (beat/min.) start admin.: doses unchanged; for heart rate (beat/min.) 12th wk aft admin.: named ARB + cilnidipine only, 12 weeks after starting the combined administration; for heart rate (beat/min.) start. admin., ave.: on named ARB + 5 mg amlodipine, at switch of amlodipine to 10 mg cilnidipine; for heart rate (beat/min.) start admin.: on named ARB alone (candesartan 8, valsartan 80, losartan 50, telmisartan 40 mg) at start of adding cilnidipine 10 mg; for heart rate (beat/min.) upon start. admin.: on named ARB alone, before cilnidipine was additionally administered
Description: as §1, §2, §3, §4, §5
Table 7 and FIG. 2 show the number of cases for which the blood pressure was measured, and the changes in the measured values of systolic BP, diastolic BP, and heart rate were measured at the following time points: before starting the combined administration, 4 weeks, 8 weeks, and 12 weeks after starting the combined administration, and the last measurement, which was 222.43 days in average from the start of the combined administration, n=2919). […] Then, it continued to slowly decrease, and the a stable change was seen up to 12 weeks after the start.

[4] = named ARB + 10 mg cilnidipine after switch from 5 mg amlodipine, 12 weeks or later to the last measurement
[5] = named ARB + cilnidipine 10 mg, doses unchanged, last measurement, 211.43 ± 133.43 day after starting the combined use
[6] = named ARB + cilnidipine only, 12 weeks after starting the combined administration
[7] = on named ARB + 5 mg amlodipine, at switch of amlodipine to 10 mg cilnidipine, doses unchanged
[8] = on named ARB alone (candesartan 8, valsartan 80, losartan 50, telmisartan 40 mg) at start of adding cilnidipine 10 mg, doses unchanged
[9] = on named ARB alone, before cilnidipine was additionally administered

Row | SMILES | diastolic BP (hypertensive patients [1]; [4]) | systolic BP (hypertensive patients [1]; [4]) | diastolic BP (hypertensive patients [1]; [5]) | systolic BP (hypertensive patients [1]; [5]) | diastolic BP (hypertensive patients [1]; [6]) | systolic BP (hypertensive patients [1]; [6]) | diastolic BP (hypertensive patients [1]; [7]) | systolic BP (hypertensive patients [1]; [7]) | diastolic BP (hypertensive patients [1]; [8]) | systolic BP (hypertensive patients [1]; [8]) | diastolic BP (hypertensive patients [1]; [9]) | systolic BP (hypertensive patients [1]; [9]) | efficacy ratio (%) (hypertensive patients [2]) | heart rate (beat/min.) last meas., ave. (hypertensive patients [3]) | heart rate (beat/min.) last meas. (hypertensive patients [3]) | heart rate (beat/min.) 12th wk aft admin. (hypertensive patients [3]) | heart rate (beat/min.) start. admin., ave. (hypertensive patients [3]) | heart rate (beat/min.) start admin. (hypertensive patients [3]) | heart rate (beat/min.) upon start. admin. (hypertensive patients [3])
1 | CCCCC(=O)N(Cc1ccc(-c2ccccc2-c2nnn[nH]2)cc1)[C@H](C(=O)O)C(C)C [valsartan] | 80.74 mmHg | 140.67 mmHg | 80.62 ± 10.40 mmHg | 140.75 ± 15.61 mmHg | 79.31 ± 10.42 mmHg | 138.32 ± 14.28 mmHg | 89.36 mmHg | 158.15 mmHg | 91.43 ± 11.20 mmHg | 160.65 ± 16.04 mmHg | 91.50 ± 10.58 mmHg | 160.65 ± 15.20 mmHg | 86.0% | 75.86 beat/min. | 72.89 ± 10.20 beat/min. | 71.65 ± 9.38 beat/min. | 77.18 beat/min. | 74.08 ± 10.41 beat/min. | 73.22 ± 9.51 beat/min.
2 | CCCc1nc(C(C)(C)O)c(C(=O)O)n1Cc1ccc(-c2ccccc2-c2nnn[nH]2)cc1 [olmesartan] | – | – | – | – | – | – | – | – | – | – | – | – | 100.0% | – | – | – | – | – | –
3 | CCCCc1nc(Cl)c(CO)n1Cc1ccc(-c2ccccc2-c2nn[nH]n2)cc1 [losartan] | 79.78 mmHg | 138.22 mmHg | 79.32 ± 9.82 mmHg | 137.74 ± 15.19 mmHg | 79.45 ± 9.20 mmHg | 139.52 ± 14.43 mmHg | 82.00 mmHg | 150.35 mmHg | 90.40 ± 10.35 mmHg | 161.84 ± 16.13 mmHg | 88.67 ± 9.91 mmHg | 160.78 ± 14.13 mmHg | 89.8% | 72.44 beat/min. | 73.66 ± 9.49 beat/min. | 73.95 ± 7.68 beat/min. | 72.00 beat/min. | 74.13 ± 8.98 beat/min. | 73.81 ± 8.29 beat/min.
4 | CCCc1nc2c(C)cc(-c3nc4ccccc4n3C)cc2n1Cc1ccc(-c2ccccc2C(=O)O)cc1 [telmisartan] | 83.08 mmHg | 147.23 mmHg | 80.49 ± 12.78 mmHg | 138.89 ± 15.89 mmHg | 80.70 ± 11.71 mmHg | 143.64 ± 12.53 mmHg | 86.15 mmHg | 155.00 mmHg | 93.52 ± 10.84 mmHg | 163.00 ± 17.32 mmHg | 90.94 ± 12.27 mmHg | 161.33 ± 12.62 mmHg | 88.0% | 71.00 beat/min. | 72.12 ± 9.42 beat/min. | 73.09 ± 9.29 beat/min. | 70.00 beat/min. | 74.24 ± 11.55 beat/min. | 74.95 ± 12.70 beat/min.
5 | CCOc1nc2cccc(C(=O)O)c2n1Cc1ccc(-c2ccccc2-c2nnn[nH]2)cc1 [candesartan] | 78.58 mmHg | 140.96 mmHg | 79.81 ± 12.72 mmHg | 141.02 ± 17.36 mmHg | 79.81 ± 12.72 mmHg | 141.29 ± 17.02 mmHg | 82.90 mmHg | 152.10 mmHg | 89.59 ± 14.80 mmHg | 164.98 ± 16.35 mmHg | 89.59 ± 14.80 mmHg | 163.78 ± 17.52 mmHg | 85.5% | 72.58 beat/min. | 72.47 ± 11.14 beat/min. | 72.66 ± 11.86 beat/min. | 75.54 beat/min. | 74.19 ± 10.96 beat/min. | 75.14 ± 11.48 beat/min.
